Values quoted from earlier work, collected in patent US20080063689A1, “Dietary supplements containing anthocyanins and methods for using same to enhance creatine absorption and vasodilation” (priority 2006, published 2008).

Test system: pancreatic beta cells
Settings: glucose concentrations within physiological norms

For cyanidin-3-glycoside, the “ability to stimulate insulin secretion” value is listed as “highest abilities to stimulate insulin secretion”.

For delphinium 3-glycoside, the “ability to stimulate insulin secretion” value is given as “highest abilities to stimulate insulin secretion”.
